Data: patent US20060205819A1, “Methods of treatment inflammatory bowel with lxr agonists” (priority 2003, published 2006)
Read-outs that look alike come from different tables or passages of the source. Marks after values point to notes of the source that are not given here.

Tests used:
LXRβ protein = molecular target: T1, LXRβ protein (Homo sapiens, UniProt P55055); assay: LXRβ / SRC-1 peptide fluorescence assay (streptavidin-APC / Europium); assay type: biochemical; settings: 1 μM; over a background reading of 10000 fluorescence units
T1 sequence (P55055 1-460): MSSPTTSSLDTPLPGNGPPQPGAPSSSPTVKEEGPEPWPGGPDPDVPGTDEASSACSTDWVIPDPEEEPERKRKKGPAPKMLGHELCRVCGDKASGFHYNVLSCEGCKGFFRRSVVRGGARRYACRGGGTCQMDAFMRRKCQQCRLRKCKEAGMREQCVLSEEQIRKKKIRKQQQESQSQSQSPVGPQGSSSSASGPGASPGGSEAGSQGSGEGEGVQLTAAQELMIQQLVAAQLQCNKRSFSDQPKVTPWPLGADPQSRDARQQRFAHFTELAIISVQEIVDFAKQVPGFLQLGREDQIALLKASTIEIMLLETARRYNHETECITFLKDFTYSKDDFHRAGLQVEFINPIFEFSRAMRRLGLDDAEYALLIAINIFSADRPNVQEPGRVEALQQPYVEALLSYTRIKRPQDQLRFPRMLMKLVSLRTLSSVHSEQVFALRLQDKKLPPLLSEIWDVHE
Description: Other LXR agonists may be identified by assays such as those described in the above referenced patent applications, for example, the assays described in Examples 1 and 2 of PCT/US01/27622. Biotinylated LXRβ protein was incubated for 20-25 minutes at a concentration of 25 nM in assay buffer (50 mM KCl, 50 mM Tris-pH8, 0.1 mg/ml FAF-BSA, 10 mM DTT) with equimolar amounts of streptavidin-AlloPhycoCyanin (APC, Molecular Probes). At the same time, the biotinylated peptide comprising amino acids 675-699 of SRC-1 ([…]-CONH2) (SEQ ID NO: 5) at a concentration of 25 nM was incubated in assay buffer with a […] of streptavidin-labelled Europium (Wallac) for 20-25 minutes. After the initial incubations are completed, a 10 molar excess (250 nM) of cold biotin was added to each of the solutions to block the unattached streptavidin reagents. After 20 min at room temp, the solutions were mixed yielding a concentration of 12.5 nM for the dye-labelled LXRβ protein and SRC-1 peptide.
80 μL of the protein/peptide mixture was added to each well of an assay plate containing 20 μL of test compound. […] The plates were incubated at room temp in the dark for 4-12 hours and then counted on a Wallac Victor fluorescent plate reader. In this assay 1 μM 24(S), 25-epoxycholesterol gave a reading of 20000 fluorescence units over a background reading of 10000 fluorescence units. […]

DSS-induced colitis = DSS-induced colitis in mice, disease activity index (DAI) AUC; assay type: in vivo, BALB/c mice; settings: for severity of DSS-induced colitis: p.o.; for AUC (0-12 day) / AUC (3-7 day) / AUC (7-10 day) / AUC (10-12 day): DAI curve AUC, 3% DSS mice, mean +/- SE; for inhibition at 3 mg/kg / inhibition at 10 mg/kg / inhibition at 30 mg/kg: Mus musculus, po, vs DSS + vehicle; for inhibition at 3 mg/kg: 3 mg/kg p.o. b.i.d.; for inhibition at 10 mg/kg: 10 mg/kg p.o. b.i.d.; for inhibition at 30 mg/kg: 30 mg/kg p.o. b.i.d.
Description: Female, 10-week-old BALB/c mice (Charles River Japan) were used in this study. Colitis was induced by providing drinking water containing 3% dextran sulfate sodium (DSS, ICN Biomedicals Inc., M.W.=36,000-50,000) for 5 days. The administration of DSS was discontinued on day 5, and mice were given tap water alone for 7 days until on day 12.
The disease activity index (DAI) was determined in all animals, by scoring body weight, stool consistency and rectal bleeding as described by Murthy, S. N. S. (Digestive Diseases and Sciences, 38(9) p. 1722-1734(1993)). Severity of colitis was evaluated by area under the curve (AUC) calculated based on DAI curve ranged from day 3 to day 7 (AUC (3-7 day)), from day 7 to day 10 (AUC (7-10 day)), from day 10 to day 12 (AUC (10-12 day)) and from day 0 to day 12 (AUC (0-12 day)).
Ten mice were used in each group. Compound IIa and Compound Ia were suspended in 0.5% methylcellulose (MC) solution. Compound IIa 3 or 10 or 30 mg/kg or its vehicle (0.5% MC solution) was administered orally twice a day for 12 days from day 0. Compound Ia at 50 mg/kg was administered orally once a day for 12 days from day 0. The experimental groups were set up as follows:
• 3% DSS+vehicle (0.5% MC solution) 3% DSS+Compound IIa (3 mg/kg) 3% DSS+Compound IIa (10 mg/kg) 3% DSS+Compound IIa (30 mg/kg) 3% DSS+Compound Ia (50 mg/kg) * Mice which received tap water without DSS.

[1] = read-out: Inhibition (%) of AUC (0-12 day)
[2] = read-out: Inhibition (%) of AUC (3-7 day)
[3] = read-out: Inhibition (%) of AUC (7-10 day)
[4] = read-out: Inhibition (%) of AUC (10-12 day)

C[C@H](CC[C@@H]1OC1(C)C)[C@H]1CC[C@H]2[C@@H]3CC=C4C[C@@H](O)CC[C@]4(C)[C@H]3CC[C@]12C [24(S), 25-epoxycholesterol]
reading (LXRβ protein): 20000 fluorescence units

O=C(O)Cc1cccc(OCCCN(Cc2cccc(C(F)(F)F)c2Cl)CC(c2ccccc2)c2ccccc2)c1 [Compound IIa, 2-(3-{3-[[2-Chloro-3-(trifluoromethyl)benzyl](2,2-diphenylethyl)amino]propoxy}-phenyl)acetic acid]
severity of DSS-induced colitis (DSS-induced colitis; 3, 10 and 30 mg/kg, b.i.d., significantly lower AUC compared with vehicle-treated DSS-fed mice): suppressed the severity of DSS-induced colitis
AUC (0-12 day) (DSS-induced colitis; 3 mg/kg p.o. b.i.d. 12 days): 14.02 +/− 1.56
AUC (3-7 day) (DSS-induced colitis; 3 mg/kg p.o. b.i.d. 12 days): 4.93 +/− 0.38**
AUC (7-10 day) (DSS-induced colitis; 3 mg/kg p.o. b.i.d. 12 days): 5.05 +/− 0.75
AUC (10-12 day) (DSS-induced colitis; 3 mg/kg p.o. b.i.d. 12 days): 2.73 +/− 0.55
AUC (0-12 day) (DSS-induced colitis; 10 mg/kg p.o. b.i.d. 12 days): 11.25 +/− 1.42**
AUC (3-7 day) (DSS-induced colitis; 10 mg/kg p.o. b.i.d. 12 days): 4.60 +/− 0.40**
AUC (7-10 day) (DSS-induced colitis; 10 mg/kg p.o. b.i.d. 12 days): 3.70 +/− 0.62*
AUC (10-12 day) (DSS-induced colitis; 10 mg/kg p.o. b.i.d. 12 days): 1.70 +/− 0.37
AUC (0-12 day) (DSS-induced colitis; 30 mg/kg p.o. b.i.d. 12 days): 11.70 +/− 1.32*
AUC (3-7 day) (DSS-induced colitis; 30 mg/kg p.o. b.i.d. 12 days): 4.70 +/− 0.36**
AUC (7-10 day) (DSS-induced colitis; 30 mg/kg p.o. b.i.d. 12 days): 3.94 +/− 0.62
AUC (10-12 day) (DSS-induced colitis; 30 mg/kg p.o. b.i.d. 12 days): 1.67 +/− 0.44
inhibition at 3 mg/kg (DSS-induced colitis; [1]): 22%
inhibition at 3 mg/kg (DSS-induced colitis; [2]): 28.2%
inhibition at 3 mg/kg (DSS-induced colitis; [3]): 20.5%
inhibition at 3 mg/kg (DSS-induced colitis; [4]): 14.7%
inhibition at 10 mg/kg (DSS-induced colitis; [1]): 37.4%
inhibition at 10 mg/kg (DSS-induced colitis; [2]): 33%
inhibition at 10 mg/kg (DSS-induced colitis; [3]): 41.7%
inhibition at 10 mg/kg (DSS-induced colitis; [4]): 46.9%
inhibition at 30 mg/kg (DSS-induced colitis; [1]): 34.9%
inhibition at 30 mg/kg (DSS-induced colitis; [2]): 31.6%
inhibition at 30 mg/kg (DSS-induced colitis; [3]): 38%
inhibition at 30 mg/kg (DSS-induced colitis; [4]): 47.8%

O=S(=O)(c1ccccc1)N(CC(F)(F)F)c1ccc(C(O)(C(F)(F)F)C(F)(F)F)cc1 [Compound Ia]
severity of DSS-induced colitis (DSS-induced colitis; 50 mg/kg, q.d., significant lower AUC (3-7 day) and AUC (0-12 day) compared with vehicle-treated DSS-fed mice): inhibited the severity of DSS-induced colitis
AUC (0-12 day) (DSS-induced colitis; 50 mg/kg p.o. q.d. 12 days): 12.33 +/− 1.40*
AUC (3-7 day) (DSS-induced colitis; 50 mg/kg p.o. q.d. 12 days): 4.80 +/− 0.38**
AUC (7-10 day) (DSS-induced colitis; 50 mg/kg p.o. q.d. 12 days): 4.25 +/− 0.72
AUC (10-12 day) (DSS-induced colitis; 50 mg/kg p.o. q.d. 12 days): 1.98 +/− 0.45
